The test deals with db/db mice. Briefly: db/db mouse model experiment (leptin receptor-deficient genetic obesity model, 45 kcal % high-fat diet). In kind it is in vivo. How it is done:
To confirm anti-obesity efficacy, N-((3S,5S)-1-((3S,4R)-1-(tert-butyl)-4-(4-chlorophenyl)pyrrolidine-3-carbonyl)-5- (morpholine-4 -carbonyl)pyrrolidin-3-yl)-N-((1s ,4R)-4-methylcyclohexyl)isobutyramide hydrochloride (hereinafter referred to as “Test Compound”) obtained in the Preparation Example was administered repeatedly for 4 weeks while feeding 45 kcal % high-fat diet (diet with 45 kcal % fat) to db/db mice which is a genetic obesity mouse model in which a mutation in the leptin receptor associated with the MC4R pathway occurred. The weight gain inhibitory effect was confirmed by measuring the body weight during the administration period, and the body fat mass reduction effect was confirmed by measuring the total body fat mass after repeated administration for 4 weeks. […] The results are represented in FIG. 1.

Setting [1] is: body fat analysis after repeated administration for 4 weeks, compared to the negative control group.
[2] abbreviates: db/db mice on 45 kcal % high-fat diet, repeated administration for 4 weeks, compared to the negative control group.

Each structure is given as a SMILES string.

For `CC(C)C(=O)N([C@H]1C[C@@H](C(=O)N2CCOCC2)N(C(=O)[C@@H]2CN(C(C)(C)C)C[C@H]2c2ccc(Cl)cc2)C1)[C@H]1CC[C@@H](C)CC1.Cl` [Test Compound, N-((3S,5S)-1-((3S,4R)-1-(tert-butyl)-4-(4-chlorophenyl)pyrrolidine-3-carbonyl)-5-(morpholine-4-carbonyl)pyrrolidin-3-yl)-N-((1s ,4R)-4-methylcyclohexyl)isobutyramide hydrochloride], under setting [1], the fat mass result is “significantly decreased” and the fat-free mass entry was “no difference”. Moreover, under setting [2], the body weight result is recorded as “significantly reduced” and the weight gain rate entry is “significantly decreased”. The weight loss effect entry (leptin receptor-deficient mouse model (db/db), FIG. 1) is given as “significant weight loss effect”.

These data come from patent publication US20240148743A1, “USES OF MELANOCORTIN-4 RECEPTOR AGONIST” (LG CHEM, LTD., priority 2021, published 2024).
